Measurements reported in ChEMBL document CHEMBL1201862, “PubChem BioAssay data set” (2004).
Calls of active or inactive are those of the source.

How the values were obtained:
[1] = target: T1, DNA repair and recombination protein RAD54-like (Homo sapiens, UniProt Q92698); assay: inhibitors of human RAD54 branch migration, confirmation, biochemical, fluorescence, cherry-picked samples, dose series (AID 651657); assay type: functional
T1 sequence (Q92698 whole entry): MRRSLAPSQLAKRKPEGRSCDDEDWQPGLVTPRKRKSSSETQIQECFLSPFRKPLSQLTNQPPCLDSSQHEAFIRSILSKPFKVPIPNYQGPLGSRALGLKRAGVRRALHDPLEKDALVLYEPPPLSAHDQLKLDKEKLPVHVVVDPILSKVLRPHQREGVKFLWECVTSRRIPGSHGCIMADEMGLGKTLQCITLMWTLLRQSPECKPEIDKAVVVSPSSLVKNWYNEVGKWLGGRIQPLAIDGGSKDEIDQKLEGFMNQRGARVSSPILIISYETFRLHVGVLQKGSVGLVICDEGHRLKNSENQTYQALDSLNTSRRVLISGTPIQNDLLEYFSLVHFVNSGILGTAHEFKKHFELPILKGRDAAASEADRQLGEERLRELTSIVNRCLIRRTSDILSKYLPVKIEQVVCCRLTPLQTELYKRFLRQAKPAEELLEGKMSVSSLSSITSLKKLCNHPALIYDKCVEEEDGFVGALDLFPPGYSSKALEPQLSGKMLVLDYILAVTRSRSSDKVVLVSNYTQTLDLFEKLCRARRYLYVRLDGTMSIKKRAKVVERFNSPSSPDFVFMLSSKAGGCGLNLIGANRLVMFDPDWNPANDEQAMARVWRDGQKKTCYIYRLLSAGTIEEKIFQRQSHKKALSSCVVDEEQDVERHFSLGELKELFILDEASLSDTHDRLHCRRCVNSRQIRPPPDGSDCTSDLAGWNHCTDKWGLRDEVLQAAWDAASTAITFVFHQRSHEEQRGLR

[2] = A549 cell cytotoxicity, dose response, cytotoxicity control, plate reader, cherry-pick, antagonist series (AID 743412); assay type: functional, cell-based
[3] = HepG2 cell cytotoxicity, dose response, cytotoxicity control, plate reader, cherry-pick, antagonist series (AID 743416); assay type: functional, cell-based
[4] = HEK293 cell cytotoxicity, dose response, cytotoxicity control, plate reader, cherry-picked samples (AID 743446); assay type: functional, cell-based
[5] = LGR2 antagonists, dose response, cell-based, HEK293, CRE-luciferase reporter, cherry pick, set 2 (AID 743343); assay type: functional;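 note: transfected cells were stimulated with diluted bursicon conditioned medium after compound addition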
[6] = MC4R antagonists, dose response, counter-screen for LGR2 antagonist project, cell-based, plate reader, cherry pick (AID 743444); assay type: functional;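 note: transfected HEK 293 cells stimulated with alpha-MSH peptide; potency of inhibitors of the alpha-MSH evoked signal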
Protein RecA = target: T2, Protein RecA (Mycobacterium tuberculosis, UniProt P9WHJ3); assay: Fluorescence Cell-Free Homogeneous Dose Retest to Identify Inhibitors of RecA-Intein Splicing Activity. [Related pubchem assays (depositor defined):AID2097, AID2223, AID489010, AID492950]; assay type: functional
T2 sequence (P9WHJ3 whole entry): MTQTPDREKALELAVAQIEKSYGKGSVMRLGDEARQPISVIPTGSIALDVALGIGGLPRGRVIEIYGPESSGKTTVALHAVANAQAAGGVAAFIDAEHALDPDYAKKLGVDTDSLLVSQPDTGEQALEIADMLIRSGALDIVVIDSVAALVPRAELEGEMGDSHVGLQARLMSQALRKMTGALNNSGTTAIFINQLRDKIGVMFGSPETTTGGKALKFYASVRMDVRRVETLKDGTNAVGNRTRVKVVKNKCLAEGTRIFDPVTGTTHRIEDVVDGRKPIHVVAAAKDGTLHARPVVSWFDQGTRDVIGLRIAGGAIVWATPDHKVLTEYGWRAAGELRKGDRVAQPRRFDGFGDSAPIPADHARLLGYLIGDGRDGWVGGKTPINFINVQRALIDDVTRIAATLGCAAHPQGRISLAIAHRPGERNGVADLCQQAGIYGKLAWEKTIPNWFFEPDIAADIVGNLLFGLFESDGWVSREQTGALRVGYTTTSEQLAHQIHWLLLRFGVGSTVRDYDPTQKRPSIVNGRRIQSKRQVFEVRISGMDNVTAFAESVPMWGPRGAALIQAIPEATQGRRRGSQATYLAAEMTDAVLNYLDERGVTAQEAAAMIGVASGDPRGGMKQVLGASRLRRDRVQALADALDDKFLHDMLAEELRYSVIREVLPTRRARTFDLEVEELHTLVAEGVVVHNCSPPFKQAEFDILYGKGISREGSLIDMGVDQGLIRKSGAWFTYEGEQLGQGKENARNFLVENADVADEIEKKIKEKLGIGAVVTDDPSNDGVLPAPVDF

[7] = target: T3, Replicative DNA helicase DnaB (Mycobacterium tuberculosis, UniProt P9WMR3); assay: DnaB intein splicing inhibitors, dose response, biochemical, cell-free fluorescence (AID 449749); assay type: functional
T3 sequence (P9WMR3 whole entry): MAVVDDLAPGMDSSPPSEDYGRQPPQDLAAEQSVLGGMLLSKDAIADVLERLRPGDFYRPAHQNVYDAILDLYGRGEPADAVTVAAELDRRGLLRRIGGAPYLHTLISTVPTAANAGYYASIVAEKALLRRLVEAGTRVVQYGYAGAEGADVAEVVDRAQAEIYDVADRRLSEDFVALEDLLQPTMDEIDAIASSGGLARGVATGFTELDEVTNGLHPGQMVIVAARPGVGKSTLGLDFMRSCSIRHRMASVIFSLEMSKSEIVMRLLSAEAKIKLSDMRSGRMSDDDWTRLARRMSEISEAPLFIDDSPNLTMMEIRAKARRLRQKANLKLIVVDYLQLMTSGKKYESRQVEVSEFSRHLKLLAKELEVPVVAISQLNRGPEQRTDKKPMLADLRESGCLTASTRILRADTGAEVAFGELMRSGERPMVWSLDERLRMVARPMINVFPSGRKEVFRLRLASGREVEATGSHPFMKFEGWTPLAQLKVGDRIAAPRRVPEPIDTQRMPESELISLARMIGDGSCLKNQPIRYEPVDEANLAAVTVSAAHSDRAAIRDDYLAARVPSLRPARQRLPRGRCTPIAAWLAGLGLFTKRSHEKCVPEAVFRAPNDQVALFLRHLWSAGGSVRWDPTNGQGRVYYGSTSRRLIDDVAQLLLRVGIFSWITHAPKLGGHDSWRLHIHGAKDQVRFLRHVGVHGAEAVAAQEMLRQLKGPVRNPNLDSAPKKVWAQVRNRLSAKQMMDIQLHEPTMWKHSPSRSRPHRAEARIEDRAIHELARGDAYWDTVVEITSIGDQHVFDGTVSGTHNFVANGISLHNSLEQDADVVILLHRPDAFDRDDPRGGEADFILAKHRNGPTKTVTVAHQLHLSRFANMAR

[8] = target: T4, Microphthalmia-associated transcription factor (Homo sapiens, UniProt O75030); assay: TRPM1 promoter luciferase signal decrease, dose response, MITF inhibitor project, cell-based, SK-MEL-5, cherry-picked, set 3 (AID 493073); assay type: functional
T4 sequence (O75030 whole entry): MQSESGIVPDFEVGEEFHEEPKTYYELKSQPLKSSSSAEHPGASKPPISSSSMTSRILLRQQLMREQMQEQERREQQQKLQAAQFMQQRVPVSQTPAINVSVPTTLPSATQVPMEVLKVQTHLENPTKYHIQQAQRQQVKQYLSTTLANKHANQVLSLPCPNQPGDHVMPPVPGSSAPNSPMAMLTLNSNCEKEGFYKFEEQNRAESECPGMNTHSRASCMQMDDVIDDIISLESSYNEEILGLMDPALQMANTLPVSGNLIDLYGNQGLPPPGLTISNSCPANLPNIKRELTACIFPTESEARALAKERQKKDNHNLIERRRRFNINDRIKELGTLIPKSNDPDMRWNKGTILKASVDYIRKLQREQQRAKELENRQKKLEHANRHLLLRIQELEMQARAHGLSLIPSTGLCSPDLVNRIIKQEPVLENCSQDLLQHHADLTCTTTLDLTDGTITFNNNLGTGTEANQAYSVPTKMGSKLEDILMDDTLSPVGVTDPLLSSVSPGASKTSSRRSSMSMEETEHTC

[9] = target: T5, Sentrin-specific protease 8 (Homo sapiens, UniProt Q96LD8); assay type: functional
T5 sequence (Q96LD8 whole entry): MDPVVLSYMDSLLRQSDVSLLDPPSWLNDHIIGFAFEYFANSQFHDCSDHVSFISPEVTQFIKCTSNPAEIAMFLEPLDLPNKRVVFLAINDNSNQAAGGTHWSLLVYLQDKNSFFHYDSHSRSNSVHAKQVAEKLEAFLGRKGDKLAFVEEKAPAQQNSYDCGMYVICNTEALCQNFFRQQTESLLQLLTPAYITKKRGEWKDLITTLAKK

[10] = target: T5, Sentrin-specific protease 8; assay type: functional; remark: listed apart in the source
[11] = growth suppression of beta-catenin-knockout colon cells, dose response, cell-based, HCT116, human colon tumor (AID 1045); assay type: functional;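 note: HCT116 colon tumor cells with beta catenin knocked out; cells exposed to compound for 60 hours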
[12] = growth suppression of PTEN-null colon cells, dose response, cell-based, HCT116 PTEN knockout (AID 1047); assay type: functional;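 note: HCT116 colon tumor cells with PTEN knocked out; cells exposed to compound for 60 hours before readout; potency for loss of cell viability measured by luminescence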
[13] = Luminescence Cell-Based Dose Confirmation HTS to Identify Inhibitors of Platelet Dense Granule Release. [Related pubchem assays: 1663 (Primary HTS), 1678 (Summary of Project)]; assay type: functional
[14] = inhibitors of SNCA 5'UTR-driven reporter translation, confirmation, H4 neuroglioma cells, luminescence (AID 1988); assay type: functional, cell-based
[15] = Luminescence Cell-Based Dose Response HTS to Identify Inhibitors of 5'UTR Stem-Loop Driven Prion Protein mRNA Translation in H4 Neuroglioblastoma Cells. [Related pubchem assays: 1827 (Project Summary), 1813 (Primary HTS)]; assay type: functional
BJ [16] = assay: cytotoxicity toward BJ-TERT fibroblasts, dose response, cell-based, RAS-independent, luminescence (AID 1933); assay type: functional; settings: Homo sapiens
BJ [17] = assay: cells; assay type: functional, cell-based; settings: Homo sapiens
[18] = cytotoxicity toward DRD oncogenic fibroblasts, dose response, cell-based, non-viral oncogenic, luminescence (AID 1934); assay type: functional; settings: Homo sapiens
[19] = target: Luciferin 4-monooxygenase (Photinus pyralis, UniProt P08659); assay: firefly luciferase enzyme inhibitors, dose response, biochemical, luminescence (AID 1891)
BJ [20] = assay: cytotoxicity toward BJ-TERT-LT-ST fibroblasts, dose response, cell-based, RAS-independent, luminescence (AID 1935); assay type: functional; settings: Homo sapiens;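 note: BJ fibroblasts immortalized with TERT plus LT and ST oncogenes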
Protein skinhead-1 = target: T6, Protein skinhead-1 (Caenorhabditis elegans, UniProt P34707); assay type: functional
T6 sequence (P34707 whole entry): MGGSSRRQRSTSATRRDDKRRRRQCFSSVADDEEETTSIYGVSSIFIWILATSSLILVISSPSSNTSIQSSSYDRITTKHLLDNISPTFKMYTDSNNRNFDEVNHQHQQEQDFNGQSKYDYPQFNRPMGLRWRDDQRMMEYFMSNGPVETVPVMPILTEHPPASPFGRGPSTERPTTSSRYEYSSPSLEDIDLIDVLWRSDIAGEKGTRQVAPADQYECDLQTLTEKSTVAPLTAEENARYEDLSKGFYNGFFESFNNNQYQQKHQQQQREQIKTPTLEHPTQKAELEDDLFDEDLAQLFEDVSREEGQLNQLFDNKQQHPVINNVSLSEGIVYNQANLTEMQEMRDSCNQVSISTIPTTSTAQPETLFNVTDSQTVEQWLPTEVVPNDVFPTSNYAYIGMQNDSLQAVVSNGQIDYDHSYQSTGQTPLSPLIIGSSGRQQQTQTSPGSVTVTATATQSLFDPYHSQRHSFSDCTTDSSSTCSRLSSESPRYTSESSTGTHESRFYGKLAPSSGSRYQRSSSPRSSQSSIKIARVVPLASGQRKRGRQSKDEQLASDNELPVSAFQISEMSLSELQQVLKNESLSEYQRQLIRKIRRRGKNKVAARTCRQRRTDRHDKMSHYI

Cytochrome P450 3A4 = Cytochrome P450 3A4 (Homo sapiens, UniProt P08684); settings: Potency;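 note: confirmatory qHTS run detecting inhibitors and substrates of CYP3A4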
Chain of Cytochrome P450 3A4 (P08684 whole entry): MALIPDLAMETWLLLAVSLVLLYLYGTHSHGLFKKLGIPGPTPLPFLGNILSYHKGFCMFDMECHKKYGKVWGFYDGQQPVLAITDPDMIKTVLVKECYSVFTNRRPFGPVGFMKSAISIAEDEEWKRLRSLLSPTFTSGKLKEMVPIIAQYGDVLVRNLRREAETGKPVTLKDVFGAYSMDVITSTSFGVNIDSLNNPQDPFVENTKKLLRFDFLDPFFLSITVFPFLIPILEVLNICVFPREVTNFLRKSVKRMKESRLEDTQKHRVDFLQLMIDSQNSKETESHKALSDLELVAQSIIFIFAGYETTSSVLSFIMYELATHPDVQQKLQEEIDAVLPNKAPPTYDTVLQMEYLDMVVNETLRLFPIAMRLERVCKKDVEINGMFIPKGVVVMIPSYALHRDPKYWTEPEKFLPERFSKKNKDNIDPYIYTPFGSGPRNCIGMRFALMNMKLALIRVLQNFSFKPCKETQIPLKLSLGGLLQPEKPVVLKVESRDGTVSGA

Chain of Luciferin 4-monooxygenase (P08659 whole entry): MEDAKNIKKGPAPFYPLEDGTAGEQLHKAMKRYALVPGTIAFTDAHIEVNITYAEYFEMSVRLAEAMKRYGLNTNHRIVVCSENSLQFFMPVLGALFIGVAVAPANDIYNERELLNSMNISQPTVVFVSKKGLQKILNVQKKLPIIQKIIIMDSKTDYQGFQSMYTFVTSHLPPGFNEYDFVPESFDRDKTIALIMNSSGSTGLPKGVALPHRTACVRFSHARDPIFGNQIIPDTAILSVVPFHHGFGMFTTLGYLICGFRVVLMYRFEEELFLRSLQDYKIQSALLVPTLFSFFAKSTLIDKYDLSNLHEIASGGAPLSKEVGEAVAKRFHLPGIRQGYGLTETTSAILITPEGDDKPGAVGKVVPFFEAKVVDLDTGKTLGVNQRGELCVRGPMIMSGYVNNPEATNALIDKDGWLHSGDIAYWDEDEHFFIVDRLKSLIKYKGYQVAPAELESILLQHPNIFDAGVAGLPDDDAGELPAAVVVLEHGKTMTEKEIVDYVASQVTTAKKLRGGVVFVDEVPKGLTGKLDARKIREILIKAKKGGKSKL

CCN(CC)CCn1c2ccc(F)cc2c2nc(C)sc21
AC50 [1]: 20.9 µM (active)

C[C@@H]1CN([C@H](C)CO)C(=O)c2cccc(NC(=O)Nc3ccc(C(F)(F)F)cc3)c2O[C@@H]1CN(C)CC1CCCCC1
AC50 [2]: 7.8 µM (active)
AC50 [3]: 9.17 µM (active)
AC50 [4]: 14 µM (active)
AC50 [5]: 21.7 µM (active)
AC50 [6]: 7.5 µM (active)

C[C@@H]1CN([C@H](C)CO)C(=O)Cc2cc(NC(=O)CCC(F)(F)F)ccc2O[C@@H]1CN(C)CC1CCCCC1
AC50 [2]: 47.9 µM (active)
AC50 [3]: > 52 µM (inactive)
AC50 [4]: > 52 µM (inactive)

Cn1c(=O)c([N+](=O)[O-])c(-n2ccnc2)c2ccccc21
EC50 (Protein RecA): 6.43 µM (active)
AC50 [7]: 6.67 µM (active)
AC50 [8]: 6.6 µM (active)

COC/C=C/C1=CC2=CC(=O)C(C)(OC(=O)c3cnc4ccccc4n3)C(=O)C2=CN1CCCCO (stereo not drawn)
IC50 [9]: 17.6 µM (active)
IC50 [10]: 6.81 µM (active)

CCN(CC)CCCNc1nc2cc(OC)c(OC)cc2c2nc(-c3cccnc3)nn12
EC50 [11]: 7.33 µM (active)
EC50 [12]: 8.62 µM (active)
AC50 [1]: 2.15 µM (active)

CC1(OC(=O)CCc2ccccc2)C(=O)C=C2C=C3CCCN3C=C2C1=O (stereo not drawn)
IC50 [9]: 18.1 µM (active)
IC50 [10]: 12.1 µM (active)

Cc1cccc(-c2nc3cc(NC(=O)C4CCCO4)ccc3o2)c1 (stereo not drawn)
AC50 [2]: 43.3 µM (active)
EC50 [13]: 1.57 µM (active)
EC50 [14]: 9.78 µM (active)
EC50 [15]: 9.83 µM (active)
AC50 [3]: 33.8 µM (active)
EC50 (BJ [16]): 23.3 µM (active)
EC50 (BJ [17]): 19.8 µM (active)
AC50 [4]: 26.9 µM (active)
EC50 [18]: 17 µM (active)
EC50 [19]: 1.51 µM (active)
EC50 (BJ [20]): > 150 µM (not active)
AC50 [5]: 9.84 µM (active)
AC50 [6]: 6.37 µM (active)

Cn1c2ccc(F)cc2c2ncn(CCCN(CCO)CCO)c(=O)c21
AC50 [1]: 28 µM (active)

COC(=O)CCCC1=CC2=CC(=O)C(C)(OC(=O)c3cccs3)C(=O)C2=CN1CC(C)C (stereo not drawn)
IC50 (Protein skinhead-1): > 100 µM (inactive)
IC50 [9]: 11.1 µM (active)
IC50 [10]: 7.62 µM (active)

CC(C)Cn1c(N)c(C(=O)COC(=O)c2cc(C(F)(F)F)nc3c(C(F)(F)F)cccc23)c(=O)n(C)c1=O
AC50 (Cytochrome P450 3A4): 3.16 µM (inconclusive)

Cc1n[nH]c(O)c1C(c1cc(Br)ccc1O)c1c(C)n[nH]c1O
EC50 (Protein RecA): 0.275 µM (active)
AC50 [7]: 0.347 µM (active)
IC50 [9]: 23 µM (active)
IC50 [10]: 34 µM (active)

O=[N+]([O-])c1ccc(C=NN2CCOCC2)s1
IC50 [9]: 31.9 µM (active)
IC50 [10]: 49 µM (active)
